Data as given in patent US20070167631A1, “Novel herbicides” (priority 2003, published 2007).

Experiments:
Format in all cases: in vivo
[1] = test system: Abutilon; test: Pre-emergence herbicidal action (Example B1); conditions: 250 g/ha, after 4 weeks, rating scale 10=total damage, 0=no action
Description: (§1) Monocotyledonous and dicotyledonous test plants are sown in standard soil in pots or seed trays. Immediately after sowing, the test compounds, in the form of an aqueous suspension (prepared from a wettable powder (Example F3, b) according to WO 97/34485) or in the form of an emulsion (prepared from an emulsifiable concentrate (Example F1, c) according to WO 97/34485), are applied by spraying in a concentration of 250 g/ha. The test plants are then grown in a greenhouse under optimum conditions. After a test duration of 4 weeks, the test is evaluated in accordance with a scale of eleven ratings (10=total damage, 0=no action). Ratings of from 10 to 7 (especially from 10 to 8) indicate very good to good herbicidal action.

[2] = test system: Amaranthus; test: Pre-emergence herbicidal action (Example B1); conditions: 250 g/ha, after 4 weeks, rating scale 10=total damage, 0=no action
Description: as §1

[3] = test system: Chenopodium; test: Pre-emergence herbicidal action (Example B1); conditions: 250 g/ha, after 4 weeks, rating scale 10=total damage, 0=no action
Description: as §1

[4] = test system: Digitaria; test: Pre-emergence herbicidal action (Example B1); conditions: 250 g/ha, after 4 weeks, rating scale 10=total damage, 0=no action
Description: as §1

[5] = test system: Echinochloa; test: Pre-emergence herbicidal action (Example B1); conditions: 250 g/ha, after 4 weeks, rating scale 10=total damage, 0=no action
Description: as §1

[6] = test system: Panicum; test: Pre-emergence herbicidal action (Example B1); conditions: 250 g/ha, after 4 weeks, rating scale 10=total damage, 0=no action
Description: as §1

[7] = test system: Scirpus; test: Pre-emergence herbicidal action (Example B1); conditions: 250 g/ha, after 4 weeks, rating scale 10=total damage, 0=no action
Description: as §1

[8] = test system: Amaranthus; test: Post-emergence herbicidal action (Example B2); conditions: 250 g/ha, after about 18 days, rating scale 10=total damage, 0=no action
Description: (§2) Monocotyledonous and dicotyledonous test plants are cultivated in a greenhouse in standard soil in plastic pots and, at the 4- to 6-leaf stage, are sprayed with an aqueous suspension of the test compounds of formula I prepared from a 25% wettable powder (Example F3, b) according to WO 97/34485) or with an emulsion of the test compounds of formula I prepared from a 25% emulsifiable concentrate (Example F1, c) according to WO 97/34485), corresponding to concentrations of 125 and 250 g of active ingredient per hectare (500 litres of water per ha). The test plants are then grown on in the greenhouse under optimum conditions. After a test duration of about 18 days, the test is evaluated in accordance with a scale of eleven ratings (10=total damage, 0=no action). Ratings of from 10 to 7 (especially from 10 to 8) indicate very good to good herbicidal action.

[9] = test system: Chenopodium; test: Post-emergence herbicidal action (Example B2); conditions: 250 g/ha, after about 18 days, rating scale 10=total damage, 0=no action
Description: as §2

[10] = test system: Echinochloa; test: Post-emergence herbicidal action (Example B2); conditions: 250 g/ha, after about 18 days, rating scale 10=total damage, 0=no action
Description: as §2

[11] = test system: Euphorbia; test: Post-emergence herbicidal action (Example B2); conditions: 250 g/ha, after about 18 days, rating scale 10=total damage, 0=no action
Description: as §2

[12] = test system: Panicum; test: Post-emergence herbicidal action (Example B2); conditions: 250 g/ha, after about 18 days, rating scale 10=total damage, 0=no action
Description: as §2

[13] = test system: Stellaria; test: Post-emergence herbicidal action (Example B2); conditions: 250 g/ha, after about 18 days, rating scale 10=total damage, 0=no action
Description: as §2

[14] = test system: Xanthium; test: Post-emergence herbicidal action (Example B2); conditions: 250 g/ha, after about 18 days, rating scale 10=total damage, 0=no action
Description: as §2

## COC(COc1nc(C(=O)C2=C(O)CCCC2=O)ccc1C(F)(F)F)OC [Compound 1.012]
[1]
  Pre-emergence action: Abutilon: 10
[2]
  Pre-emergence action: Amaranthus: 5
[3]
  Pre-emergence action: Chenopodium: 0
[4]
  Pre-emergence action: Digitaria: 9
[5]
  Pre-emergence action: Echinochloa: 5
[6]
  Pre-emergence action: Panicum: 10
[7]
  Pre-emergence action: Scirpus: 7
[8]
  Post-emergence action: Amaranthus: 9
[9]
  Post-emergence action: Chenopodium: 8
[10]
  Post-emergence action: Echinochloa: 8
[11]
  Post-emergence action: Euphorbia: 9
[12]
  Post-emergence action: Panicum: 7
[13]
  Post-emergence action: Stellaria: 7
[14]
  Post-emergence action: Xanthium: 8

## CC1CN(c2nc(C(=O)C3=C(O)CCCC3=O)ccc2C(F)(F)F)CC(C)O1 (stereo not drawn) [Compound 1.075]
[1]
  Pre-emergence action: Abutilon: 9
[2]
  Pre-emergence action: Amaranthus: 10
[3]
  Pre-emergence action: Chenopodium: 9
[4]
  Pre-emergence action: Digitaria: 10
[5]
  Pre-emergence action: Echinochloa: 10
[6]
  Pre-emergence action: Panicum: 10
[7]
  Pre-emergence action: Scirpus: 7
[8]
  Post-emergence action: Amaranthus: 10
[9]
  Post-emergence action: Chenopodium: 10
[10]
  Post-emergence action: Echinochloa: 8
[11]
  Post-emergence action: Euphorbia: 8
[12]
  Post-emergence action: Panicum: 10
[13]
  Post-emergence action: Stellaria: 8
[14]
  Post-emergence action: Xanthium: 7

## O=C1CCCC(O)=C1C(=O)c1ccc(C(F)(F)F)c(N2CCSCC2)n1 [Compound 1.079]
[1]
  Pre-emergence action: Abutilon: 10
[2]
  Pre-emergence action: Amaranthus: 10
[3]
  Pre-emergence action: Chenopodium: 9
[4]
  Pre-emergence action: Digitaria: 10
[5]
  Pre-emergence action: Echinochloa: 10
[6]
  Pre-emergence action: Panicum: 10
[7]
  Pre-emergence action: Scirpus: 4
[8]
  Post-emergence action: Amaranthus: 8
[9]
  Post-emergence action: Chenopodium: 10
[10]
  Post-emergence action: Echinochloa: 7
[11]
  Post-emergence action: Euphorbia: 8
[12]
  Post-emergence action: Panicum: 3
[13]
  Post-emergence action: Stellaria: 10
[14]
  Post-emergence action: Xanthium: 7

## COCCOCc1nc(C(=O)C2=C(O)CCCC2=O)ccc1C(F)(F)F [Compound 1.126]
[1]
  Pre-emergence action: Abutilon: 10
[2]
  Pre-emergence action: Amaranthus: 10
[3]
  Pre-emergence action: Chenopodium: 10
[4]
  Pre-emergence action: Digitaria: 6
[5]
  Pre-emergence action: Echinochloa: 2
[6]
  Pre-emergence action: Panicum: 9
[7]
  Pre-emergence action: Scirpus: 8
[8]
  Post-emergence action: Amaranthus: 8
[9]
  Post-emergence action: Chenopodium: 8
[10]
  Post-emergence action: Echinochloa: 7
[11]
  Post-emergence action: Euphorbia: 8
[12]
  Post-emergence action: Panicum: 7
[13]
  Post-emergence action: Stellaria: 8
[14]
  Post-emergence action: Xanthium: 8

## CC1(C)C(=O)C(C(=O)c2ccc(C(F)(F)F)c(OC3CCOC3)n2)=C(O)C(C)(C)C1=O (stereo not drawn) [Compound 2.021]
[1]
  Pre-emergence action: Abutilon: 9
[2]
  Pre-emergence action: Amaranthus: 7
[3]
  Pre-emergence action: Chenopodium: 9
[4]
  Pre-emergence action: Digitaria: 3
[5]
  Pre-emergence action: Echinochloa: 0
[6]
  Pre-emergence action: Panicum: 9
[7]
  Pre-emergence action: Scirpus: 7
[8]
  Post-emergence action: Amaranthus: 9
[9]
  Post-emergence action: Chenopodium: 8
[10]
  Post-emergence action: Echinochloa: 9
[11]
  Post-emergence action: Euphorbia: 9
[12]
  Post-emergence action: Panicum: 9
[13]
  Post-emergence action: Stellaria: 7
[14]
  Post-emergence action: Xanthium: 8

## CN(C)c1nc(C(=O)C2=C(O)C(C)(C)C(=O)C(C)(C)C2=O)ccc1C(F)(F)F [Compound 2.059]
[1]
  Pre-emergence action: Abutilon: 10
[2]
  Pre-emergence action: Amaranthus: 7
[3]
  Pre-emergence action: Chenopodium: 9
[4]
  Pre-emergence action: Digitaria: 7
[5]
  Pre-emergence action: Echinochloa: 8
[6]
  Pre-emergence action: Panicum: 7
[8]
  Post-emergence action: Amaranthus: 7
[9]
  Post-emergence action: Chenopodium: 10
[10]
  Post-emergence action: Echinochloa: 8
[11]
  Post-emergence action: Euphorbia: 6
[12]
  Post-emergence action: Panicum: 5
[13]
  Post-emergence action: Stellaria: 8
[14]
  Post-emergence action: Xanthium: 7

## CC1(C)C(=O)C(C(=O)c2ccc(C(F)(F)F)c(N3CCOCC3)n2)=C(O)C(C)(C)C1=O [Compound 2.073]
[1]
  Pre-emergence action: Abutilon: 9
[2]
  Pre-emergence action: Amaranthus: 9
[3]
  Pre-emergence action: Chenopodium: 9
[4]
  Pre-emergence action: Digitaria: 7
[5]
  Pre-emergence action: Echinochloa: 9
[6]
  Pre-emergence action: Panicum: 10
[7]
  Pre-emergence action: Scirpus: 4
[8]
  Post-emergence action: Amaranthus: 9
[9]
  Post-emergence action: Chenopodium: 8
[10]
  Post-emergence action: Echinochloa: 9
[11]
  Post-emergence action: Euphorbia: 9
[12]
  Post-emergence action: Panicum: 9
[13]
  Post-emergence action: Stellaria: 7
[14]
  Post-emergence action: Xanthium: 9

## CC(=O)N(C)c1nc(C(=O)C2=C(O)C(C)(C)C(=O)C(C)(C)C2=O)ccc1C(F)(F)F [Compound 2.088]
[1]
  Pre-emergence action: Abutilon: 9
[3]
  Pre-emergence action: Chenopodium: 7
[4]
  Pre-emergence action: Digitaria: 9
[5]
  Pre-emergence action: Echinochloa: 7
[6]
  Pre-emergence action: Panicum: 9
[7]
  Pre-emergence action: Scirpus: 0

## CCC(=O)N(C)c1nc(C(=O)C2=C(O)C(C)(C)C(=O)C(C)(C)C2=O)ccc1C(F)(F)F [Compound 2.089]
[1]
  Pre-emergence action: Abutilon: 9
[2]
  Pre-emergence action: Amaranthus: 8
[3]
  Pre-emergence action: Chenopodium: 0
[4]
  Pre-emergence action: Digitaria: 8
[5]
  Pre-emergence action: Echinochloa: 8
[6]
  Pre-emergence action: Panicum: 9
[8]
  Post-emergence action: Amaranthus: 0
[9]
  Post-emergence action: Chenopodium: 9
[10]
  Post-emergence action: Echinochloa: 7
[11]
  Post-emergence action: Euphorbia: 8
[12]
  Post-emergence action: Panicum: 8
[13]
  Post-emergence action: Stellaria: 8
[14]
  Post-emergence action: Xanthium: 7

## Cc1nc(C(=O)C2=C(O)C(C)(C)C(=O)C(C)(C)C2=O)ccc1C(F)(F)F [Compound 2.203]
[1]
  Pre-emergence action: Abutilon: 10
[2]
  Pre-emergence action: Amaranthus: 9
[4]
  Pre-emergence action: Digitaria: 5
[5]
  Pre-emergence action: Echinochloa: 9
[6]
  Pre-emergence action: Panicum: 6
[7]
  Pre-emergence action: Scirpus: 8
[8]
  Post-emergence action: Amaranthus: 6
[9]
  Post-emergence action: Chenopodium: 6
[10]
  Post-emergence action: Echinochloa: 9
[11]
  Post-emergence action: Euphorbia: 9
[12]
  Post-emergence action: Panicum: 9
[13]
  Post-emergence action: Stellaria: 9
[14]
  Post-emergence action: Xanthium: 9
